In PMC7377239, “Cardiovascular Effects of Polychlorinated Biphenyls and Their Major Metabolites” (Environmental Health Perspectives, 2020):
Structures can show the parent of a compound that is named as a salt. Where two headings read alike, the source gives them in different places.

Experiments:
[1] = system: iCell endothelial cells (human iPSC-derived ECs); test: High-content imaging cytotoxicity in iCell endothelial cells, 24 h; type: cell-based; details: Homo sapiens, Endothelial cell, 24 hr; for viability at 0.1 µM / activity at 0.1 µM: 0.10 µM
Summary of the method: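 Human iPSC-derived endothelial cells (passages 1–5) were grown to a fibronectin-coated monolayer, then exposed 24 h at 37 °C with 0.5% DMSO vehicle. Staining was Hoechst 33342, MitoTracker Orange and calcein AM, read by high-content imaging. Point of departure came from 4-parameter logistic fits, with a 1-SD vehicle cutoff and 100 µM as the top concentration.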

HUVECs = test: Tube formation (tubulogenesis) assay in HUVECs, 18 h; type: cell-based, human; details: Homo sapiens, HUVEC, 18 h, HUVEC; for activity at 0.1 µM: 0.10 µM
Summary of the method: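 HUVECs (passage 1–5) seeded on reduced-growth-factor basement membrane and exposed to compounds overnight at 37°C, 5% CO2, in 2× maintenance medium with 12.5 ng/mL VEGF; 0.5% DMSO vehicle. Calcein AM-stained tube networks imaged and analysed; vehicle-normalized readouts fit to four-parameter logistic, POD set at one SD of vehicle means.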

[2] = endothelial cells (endo), cyto, read-out: POD endo.cyto.24hr
[3] = endothelial cells (endo), mito, read-out: POD endo.mito.24hr
[4] = endothelial cells (endo), mitoint, read-out: POD endo.mitoint.24hr
[5] = endothelial cells (endo), nma, read-out: POD endo.nma.24hr
[6] = endothelial cells (endo), tc, read-out: POD endo.tc.24hr
[7] = tube formation mtl, read-out: POD huvec.mtl.18hr
[8] = tube formation tlps, read-out: POD huvec.tlps.18hr
[9] = tube formation tta, read-out: POD huvec.tta.18hr
[10] = tube formation ttl, read-out: POD huvec.ttl.18hr
[11] = iPSC-EC, 0.00 µM control = 100.00, read-out: endo.cyto.24hr
[12] = iPSC-EC, 0.00 µM control = 100.00, read-out: endo.mito.24hr
[13] = iPSC-EC, 0.00 µM control = 100.00, read-out: endo.mitoint.24hr
[14] = iPSC-EC, 0.00 µM control = 100.00, read-out: endo.nma.24hr
[15] = iPSC-EC, 0.00 µM control = 100.00, read-out: endo.tc.24hrs
[16] = HUVECs, 0.00 µM = 100.00, read-out: huvec.mtl.18hr
[17] = HUVECs, 0.00 µM = 100.00, read-out: huvec.tlps.18hr
[18] = HUVECs, 0.00 µM = 100.00, read-out: huvec.tta.18hr
[19] = HUVECs, 0.00 µM = 100.00, read-out: huvec.ttl.18hr

For `O=S(=O)(O)Oc1cccc(-c2ccc(Cl)cc2)c1` [3'-PCB 3 sulfate], the minimal effective concentration [1, 2] was 100 µM, the minimal effective concentration [1, 3] was 100 µM and the minimal effective concentration [1, 4] was 100 µM. For the same compound, the minimal effective concentration [1, 5] was 100 µM, the minimal effective concentration [1, 6] was 100 µM and the minimal effective concentration (HUVECs; [7]) was 15.5 µM. For the same compound, the minimal effective concentration (HUVECs; [8]) was 100 µM, the minimal effective concentration (HUVECs; [9]) was 100 µM and the minimal effective concentration (HUVECs; [10]) was 100 µM.

`Oc1ccc(O)c(-c2ccc(Cl)cc2)c1` [2',5'-DiOH PCB3] showed a viability at 0.01 µM [1, 11] of 90.8%, an activity at 0.01 µM [1, 12] of 91.1% and an activity at 0.01 µM [1, 13] of 127%. It also gave an activity at 0.01 µM [1, 14] of 103%, a viability at 0.01 µM [1, 15] of 90.8% and a viability at 0.1 µM [1, 11] of 93.4%. It also gave an activity at 0.1 µM [1, 12] of 94%, an activity at 0.1 µM [1, 13] of 109% and an activity at 0.1 µM [1, 14] of 101%. The viability at 0.1 µM [1, 15] was 93.5%, the viability at 1 µM [1, 11] was 99.2% and the activity at 1 µM [1, 12] was 99.2%. It also gave an activity at 1 µM [1, 13] of 104%, an activity at 1 µM [1, 14] of 98.6% and a viability at 1 µM [1, 15] of 99.2%. The viability at 10 µM [1, 11] was 86.5%, the activity at 10 µM [1, 12] was 86.6% and the activity at 10 µM [1, 13] was 108%. It also gave an activity at 10 µM [1, 14] of 101%, a viability at 10 µM [1, 15] of 86.5% and a viability at 100 µM [1, 11] of 12.2%. It also gave an activity at 100 µM [1, 12] of 2.34%, an activity at 100 µM [1, 13] of 28.7% and an activity at 100 µM [1, 14] of 184%. The viability at 100 µM [1, 15] was 17%, the minimal effective concentration ([1]; iPSC-EC, top concentration 100.00 µM, read-out: endo.cyto.24hr POD) was 6.71 µM and the minimal effective concentration ([1]; iPSC-EC, top concentration 100.00 µM, read-out: endo.mito.24hr POD) was 6.71 µM. It also gave a minimal effective concentration ([1]; iPSC-EC, top concentration 100.00 µM, read-out: endo.mitoint.24hr POD) of 44.6 µM, a minimal effective concentration ([1]; iPSC-EC, top concentration 100.00 µM, read-out: endo.nma.24hr POD) of 13.7 µM and a minimal effective concentration ([1]; iPSC-EC, top concentration 100.00 µM, read-out: endo.tc.24hrs POD) of 5.78 µM. The activity at 0.01 µM (HUVECs; [16]) was 99%, the activity at 0.01 µM (HUVECs; [17]) was 90.3% and the activity at 0.01 µM (HUVECs; [18]) was 127%. For the same compound, the activity at 0.01 µM (HUVECs; [19]) was 123%, the activity at 0.1 µM (HUVECs; [16]) was 104% and the activity at 0.1 µM (HUVECs; [17]) was 135%. It also gave an activity at 0.1 µM (HUVECs; [18]) of 107%, an activity at 0.1 µM (HUVECs; [19]) of 107% and an activity at 1 µM (HUVECs; [16]) of 91.9%. The activity at 1 µM (HUVECs; [17]) was 93.2%, the activity at 1 µM (HUVECs; [18]) was 87.2% and the activity at 1 µM (HUVECs; [19]) was 90.1%. For the same compound, the activity at 10 µM (HUVECs; [16]) was 64.1%, the activity at 10 µM (HUVECs; [17]) was 21.9% and the activity at 10 µM (HUVECs; [18]) was 19.3%. The activity at 10 µM (HUVECs; [19]) was 19.9%, the activity at 100 µM (HUVECs; [16]) was 57.8% and the activity at 100 µM (HUVECs; [17]) was 9.87%. The activity at 100 µM (HUVECs; [18]) was 0.82%, the activity at 100 µM (HUVECs; [19]) was 1.52% and the minimal effective concentration (HUVECs; HUVECs, top concentration 100.00 µM, read-out: huvec.mtl.18hr POD) was 1.26 µM. For the same compound, the minimal effective concentration (HUVECs; HUVECs, top concentration 100.00 µM, read-out: huvec.tlps.18hr POD) was 1.55 µM, the minimal effective concentration (HUVECs; HUVECs, top concentration 100.00 µM, read-out: huvec.tta.18hr POD) was 1.39 µM and the minimal effective concentration (HUVECs; HUVECs, top concentration 100.00 µM, read-out: huvec.ttl.18hr POD) was 1.23 µM.

Compound `Oc1cc(Cl)c(-c2cc(Cl)ccc2Cl)cc1Cl` [4-OH-PCB 52] has a minimal effective concentration [1, 2] of 13.2 µM, a minimal effective concentration [1, 3] of 13.2 µM and a minimal effective concentration [1, 4] of 43.8 µM. For the same compound, the minimal effective concentration [1, 5] was 63.5 µM, the minimal effective concentration [1, 6] was 16.6 µM and the minimal effective concentration (HUVECs; [7]) was 8.34 µM. It also gave a minimal effective concentration (HUVECs; [8]) of 4.13 µM, a minimal effective concentration (HUVECs; [9]) of 51.8 µM and a minimal effective concentration (HUVECs; [10]) of 62.1 µM.
